Results as given in patent US8394828B2 (Janssen Pharmaceutica, NV, priority 2003, dated 2013).
Several values for one entry are separate records, joined by “and”; a condition that tells them apart may be missing. Equal values may be shown once. Read-outs that look alike come from different tables or passages of the source.

Legend:
[1] = test system: carrageenan paw-induced thermal hyperalgesia; assay: Carrageenan Paw-induced Thermal Hyperalgesia; type: in vivo, mice or rats; conditions: 10 mg/kg po; read-out: % Recovery
[2] = biological target: T1, human VR1 (Homo sapiens, UniProt Q8NER1); assay: Human VR1 functional assay (intracellular Ca++, FLIPR, capsaicin challenge); type: cell-based
T1 construct: expressed in transfected cells; host or cells: HEK293
Experimental: The functional activity of the test compounds was determined by measuring changes in intracellular calcium concentration using a Ca^++-sensitive fluorescent dye and FLIPR™ technology.
EC50 or IC50 values were determined from dose-response studies.

[3] = biological target: T1, human VR1; assay: Human VR1 [3H] RTX binding assay; conditions: for Ki: hVR1; for inhibition at 1 µM: compound at 1 μM
Summary of the method: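 Membranes from HEK293 cells transfected with human VR1, about 120 μg protein/ml, incubated with [3H] RTX in HEPES buffer pH 7.4 with 0.25 mg/mL fatty acid-free BSA for 60 min at 37° C. Bound radioactivity measured by scintillation counting. Non-specific binding defined with 200 nM unlabeled RTX.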

[4] = FLIPR functional assay IC50 hVR1 60 min, 60 min
[5] = 3H-RTX binding, read-out: 3H-RTX binding assay Ki hVR1
[6] = hVR1, capsaicin challenge, read-out: FLIPR functional assay IC50 hVR1
[7] = 3H-RTX binding assay Ki hVR1, 3H-RTX binding

T1 sequence (Q8NER1 whole entry): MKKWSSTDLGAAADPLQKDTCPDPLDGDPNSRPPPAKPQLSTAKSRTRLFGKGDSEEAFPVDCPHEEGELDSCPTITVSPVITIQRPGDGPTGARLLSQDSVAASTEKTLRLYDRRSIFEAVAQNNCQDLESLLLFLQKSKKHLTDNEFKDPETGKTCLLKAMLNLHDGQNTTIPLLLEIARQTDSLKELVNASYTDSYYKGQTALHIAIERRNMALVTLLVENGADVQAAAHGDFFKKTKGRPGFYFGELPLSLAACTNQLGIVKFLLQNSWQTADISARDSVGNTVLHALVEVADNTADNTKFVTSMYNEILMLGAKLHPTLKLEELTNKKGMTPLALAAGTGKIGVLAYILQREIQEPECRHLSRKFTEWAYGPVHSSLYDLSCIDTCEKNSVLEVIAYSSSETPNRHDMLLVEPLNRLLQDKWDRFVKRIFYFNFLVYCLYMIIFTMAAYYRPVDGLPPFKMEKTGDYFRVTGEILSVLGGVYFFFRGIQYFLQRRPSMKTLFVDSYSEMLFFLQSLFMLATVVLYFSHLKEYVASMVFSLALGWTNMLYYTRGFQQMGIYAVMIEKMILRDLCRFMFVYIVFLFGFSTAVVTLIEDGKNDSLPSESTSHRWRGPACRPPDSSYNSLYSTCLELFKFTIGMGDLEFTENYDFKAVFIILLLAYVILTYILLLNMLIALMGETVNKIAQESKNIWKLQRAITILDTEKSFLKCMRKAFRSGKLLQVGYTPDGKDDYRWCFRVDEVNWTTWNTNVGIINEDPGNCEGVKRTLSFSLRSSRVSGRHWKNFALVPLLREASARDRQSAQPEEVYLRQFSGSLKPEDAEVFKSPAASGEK

Compound	inhibition in vivo at 10 mg/kg [1] [%]	IC50 [2, 4] [µM]	Ki [3, 5]	IC50 [2, 6]	inhibition at 1 µM ([3]; 3H-RTX binding) [%]	Ki [3, 7] [µM]
O=C(C=Cc1ccc(Cl)c(C(F)(F)F)c1)Nc1cnc2ccccc2c1 [Example 56, 3-(4-Chloro-3-trifluoromethyl-phenyl)-N-quinolin-3-yl-acrylamide]	58					
O=C(CCc1ccc(C23CC4CCCC(CC(C4)C2)C3)cc1)Nc1cnc2ccccc2c1 [N-Quinolin-3-yl-3-(4-tricyclo{5.3.1.13,9}dodec-1-yl-phenyl)-propionamide]		1.9	0.176 µM			
CN(CCCc1ccccc1)c1ccc(C(=O)Nc2cnc3ccccc3c2)cc1 [4-{Methyl-(3-phenyl-propyl)-amino}-N-quinolin-3-yl-benzamide]		0.156	0.0741 µM	10 µM	97	
CN(c1ccc(C(=O)Nc2cnc3ccccc3c2)cc1)C1CCCC1 [4-(Cyclopentyl-methyl-amino)-N-quinolin-3-yl-benzamide]			0.0279 µM	0.185 µM		
CCCCCn1ccc2cc(C(=O)Nc3cnc4ccccc4c3)ccc21 [1-Pentyl-1H-indole-5-carboxylic acid quinolin-3-ylamide]		0.15			95	0.0631
CN(C(=O)c1ccc(N(C)C2CCCCC2)cc1)c1cnc2ccccc2c1 [4-(Cyclohexyl-methyl-amino)-N-methyl-N-quinolin-3-yl-benzamide]				2 µM	12	
CCCN1CCc2cc(C(=O)Nc3cnc4ccccc4c3)ccc21 [1-Propyl-2,3-dihydro-1H-indole-5-carboxylic acid quinolin-3-ylamide]			0.0156 µM	0.41 µM	93	
O=C(Nc1cnc2ccccc2c1)c1ccc2c(c1)CCN2C1CCCCC1 [1-Cyclohexyl-2,3-dihydro-1H-indole-5-carboxylic acid quinolin-3-ylamide]		0.074	0.00487 µM	0.044 µM	103	
O=C(Nc1cnc2ccccc2c1)c1ccc(NC2CCCC2)cc1 [4-Cyclopentylamino-N-quinolin-3-yl-benzamide]				3.2 µM	32	
CN(c1ccc(C(=O)Nc2cnc3ccccc3c2)cc1)C1CCCCCC1 [4-(Cycloheptyl-methyl-amino)-N-quinolin-3-yl-benzamide]			0.014 µM	0.4 µM	100	
O=C(CCc1ccc2c(c1)CCN2CC1CCCCC1)Nc1cnc2ccccc2c1 [3-(1-Cyclohexylmethyl-2,3-dihydro-1H-indol-5-yl)-N-quinolin-3-yl-propionamide]			0.512 µM	1.2 µM	61	
O=C(Nc1cnc2ccccc2c1)c1ccc(N2CCN(C(=O)Cc3ccccc3)CC2)cc1 [4-(4-Phenylacetyl-piperazin-1-yl)-N-quinolin-3-yl-benzamide]			100 µM	10 µM		
CCCCC(C)c1ccc(C(=O)Nc2cnc3ccccc3c2)cc1 (stereo not drawn)			0.0132 µM and 0.015 µM	1.1 µM and 10 µM		
O=C(Nc1cnc2ccccc2c1)c1ccc(NC2CCCCC2)nc1 [6-Cyclohexylamino-N-quinolin-3-yl-nicotinamide]				0.99 µM	1	
O=C(Nc1cnc2ccccc2c1)c1ccc(N2CCCCCCCC2)cc1 [4-Azonan-1-yl-N-quinolin-3-yl-benzamide]			0.0118 µM	0.092 µM		
O=C(Nc1cnc2ccccc2c1)c1ccc(N2CC[C@@H]3CCCC[C@@H]3C2)nc1 (relative stereo) [cis-6-(Octahydro-isoquinolin-2-yl)-N-quinolin-3-yl-nicotinamide]			0.0368 µM	0.42 µM	99	
CCCCCN(CCCCC)c1cccc(C(=O)Nc2cnc3ccccc3c2)c1 [3-Dipentylamino-N-quinolin-3-yl-benzamide]		0.26	0.107 µM		93	
CC(C)(C)c1ccc(C=CC(=O)Nc2cnc3ccccc3c2Cl)cc1 [Example 82, 3-(4-tert-Butyl-phenyl)-N-(4-chloro-quinolin-3-yl)-acrylamide]	70					
CN(Cc1ccccc1)c1ccc(CCC(=O)Nc2cnc3ccccc3c2)cc1 [3-{4-(Benzyl-methyl-amino)-phenyl}-N-quinolin-3-yl-propionamide]			0.111 µM	0.354 µM		

Compound	inhibition in vivo at 10 mg/kg [1] [%]	IC50 [2, 4] [µM]	Ki [3, 5]	IC50 [2, 6]	inhibition at 1 µM ([3]; 3H-RTX binding) [%]	Ki [3, 7] [µM]
CCCCCCCN(C)c1cccc(C(=O)Nc2cnc3ccccc3c2)c1 [3-(Heptyl-methyl-amino)-N-quinolin-3-yl-benzamide]			0.142 µM	8.8 µM	82	
O=C(Nc1cnc2ccccc2c1)c1ccc2c(c1)CCN2C(=O)c1ccccc1 [1-Benzoyl-2,3-dihydro-1H-indole-5-carboxylic acid quinolin-3-ylamide]				1.45 µM	3	
O=C(Nc1cnc2ccccc2c1)c1ccc(N2CCNCC2)cc1 [4-Piperazin-1-yl-N-quinolin-3-yl-benzamide]				0.74 µM	1	
CCCCCN1CCCc2cc(C(=O)Nc3cnc4ccccc4c3)ccc21 [1-Pentyl-1,2,3,4-tetrahydro-quinoline-6-carboxylic acid quinolin-3-ylamide]		0.47		1.6 µM	93	0.0391
CC1CN(c2ccc(C(=O)Nc3cnc4ccccc4c3)cc2)CC(C)O1 (stereo not drawn) [4-(2,6-Dimethyl-morpholin-4-yl)-N-quinolin-3-yl-benzamide]				10 µM	18	
CN(Cc1ccccc1)c1ccc(C(=O)Nc2cnc3ccccc3c2)cn1 [6-(Benzyl-methyl-amino)-N-quinolin-3-yl-nicotinamide]				0.39 µM	43	
CCCCCNc1ccc(C(=O)Nc2cnc3ccccc3c2)cc1 [4-Pentylamino-N-quinolin-3-yl-benzamide]		30	0.876 µM	8.1 µM		
CCCCCN(C)c1ccc(C(=O)Nc2cnc3ccccc3c2)cn1 [6-(Methyl-pentyl-amino)-N-quinolin-3-yl-nicotinamide]			0.122 µM	0.4 µM	91	
CCC(C)(C)c1cc(OC)c(CCC(=O)Nc2cnc3ccccc3c2)c(OC)c1 [3-{4-(1,1-Dimethyl-propyl)-2,6-dimethoxy-phenyl}-N-quinolin-3-yl-propionamide]			0.052 µM	0.32 µM	93	
CCCCCNc1cccc(C(=O)Nc2cnc3ccccc3c2)c1 [3-Pentylamino-N-quinolin-3-yl-benzamide]				2.7 µM	12	
CN(c1ccc(C=CC(=O)Nc2cnc3ccccc3c2)cc1)C1CCCCC1 [3-{4-(Cyclohexyl-methyl-amino)-phenyl}-N-quinolin-3-yl-acrylamide]		0.4	0.131 µM		91	
Cc1cc(C(=O)Nc2cnc3ccccc3c2)ccc1N(C)C1CCCCC1 [4-(Cyclohexyl-methyl-amino)-3-methyl-N-quinolin-3-yl-benzamide]		0.023	0.022 µM	0.56 µM		
CCCCCNc1ccc(C(=O)Nc2cnc3ccccc3c2)cc1C [3-Methyl-4-pentylamino-N-quinolin-3-yl-benzamide]		0.012	0.0735 µM	0.78 µM	81	
CCCCCCCNc1cccc(C(=O)Nc2cnc3ccccc3c2)c1 [3-Heptylamino-N-quinolin-3-yl-benzamide]				10 µM	20	
CCCCCN(C)c1cccc(C(=O)Nc2cnc3ccccc3c2)c1 [3-(Methyl-pentyl-amino)-N-quinolin-3-yl-benzamide]			0.262 µM	0.5 µM	72	
CCCN1CCc2cc(CCC(=O)Nc3cnc4ccccc4c3)ccc21 [3-(1-Propyl-2,3-dihydro-1H-indol-5-yl)-N-quinolin-3-yl-propionamide]			1.07 µM	1.06 µM	51	
O=C(Nc1cnc2ccccc2c1)c1ccc(N2CC3CCCC(C3)C2)nc1 [6-(3-Aza-bicyclo{3.3.1}non-3-yl)-N-quinolin-3-yl-nicotinamide]		0.279	0.00986 µM	3.7 µM	80	
O=C(Nc1cnc2ccccc2c1)c1cc2cc(Cl)ccc2[nH]1 [5-Chloro-1H-indole-2-carboxylic acid quinolin-3-ylamide]				2.8 µM	36	
